Where “and” joins values, the source holds several entries; their conditions need not be identical. Equal values may be shown once.
System: patients with prior myocardial infarction (CARE study)
Assay: CARE aligned analysis (prospective and case/control design, white males): association of genotypes with pravastatin efficacy (Tables 13, 15)
Assay type: in vivo, human
Settings: for Pravastatin Patients n/total / Pravastatin Patients (%) / 2 Rare Alleles (%), Pravastatin Patients: F&NF MI; for Pravastatin Patients n/total / Pravastatin Patients (%): WM; for Pravastatin vs placebo odds ratio, 0 rare alleles / Pravastatin vs placebo odds ratio, 1 rare allele / Pravastatin vs placebo odds ratio, 2 rare alleles / 2 rare alleles n/total (%), pravastatin patients: CARE, F MI/SD/NF MI; for Pravastatin vs. Placebo Odds Ratio (95% CI), Patients with 0 Rare Alleles / n/total (%) cases, Pravastatin Patients, 0 Rare Alleles: PON1 hCV2548962, 0 rare alleles; for Pravastatin vs. Placebo Odds Ratio (95% CI), Patients with 0 Rare Alleles / n/total (%) cases, Pravastatin Patients, 0 Rare Alleles / Pravastatin vs. Placebo Odds Ratio (95% CI), Patients with 1 Rare Allele / n/total (%) cases, Pravastatin Patients, 1 Rare Allele / Pravastatin vs. Placebo Odds Ratio (95% CI), Patients with 2 Rare Alleles / n/total (%) cases, Pravastatin Patients, 2 Rare Alleles: White Males; for Pravastatin vs. Placebo Odds Ratio (95% CI), Patients with 1 Rare Allele / n/total (%) cases, Pravastatin Patients, 1 Rare Allele: PON1 hCV2548962, 1 rare allele
Method: The data presented in Table 8 based on an association of genotypes with pravastatin efficacy of the CARE samples were further analyzed and presented in Table 13. The further analysis was performed to align the data obtained from the analysis of the CARE samples, which was a prospective study, to the analysis of the WOSCOP samples, which was a case/control study. Table 13 also presents an analysis of the association of genotypes with pravastatin efficacy in the WOSCOPs samples. Relative to the analysis performed on the data presented in Table 8, there are two significant differences to determine if the SNP influenced pravastatin efficacy. Data obtained from the CARE samples were separated by study design into two groups, those in the prospective study design group and those in the case/control study design group. The original care study contained 16 protocol defined cardiovascular disease defined endpoints and 150 other phenotypes. […] The control groups used to compare the data were also divided into two groups, the “all possible” control group and the “cleaner” control group. […] Because the participants in the WOSCOPs trial were all white males, only data obtained from white males in the CARE study were analysed. Data from the “all possible” and “cleaner” controls were compared to data obtained from the cases in the prospective study design while only data from “cleaner” controls were compared to cases in the case/control study design. The data from the case/control cohorts were analysed using conditional logistic regression (as opposed to logistic regression used for the original anaylsis).
The anaylsis was refined as described for both Tables 13 and 14.

[1] = NPC1 hCV7490135, 0 Rare Alleles, CARE Prospective, Cleaner controls
[2] = NPC1 hCV7490135, 1 Rare Allele, CARE Prospective, Cleaner controls
[3] = NPC1 hCV25472673, 0 Rare Alleles, CARE Case/Control, Cleaner controls
[4] = NPC1 hCV25472673, 0 Rare Alleles, CARE Prospective, Cleaner controls
[5] = NPC1 hCV25472673, 1 Rare Allele, CARE Case/Control, Cleaner controls
[6] = NPC1 hCV25472673, 1 Rare Allele, CARE Prospective, Cleaner controls
[7] = PLAB hCV7494810, 0 Rare Alleles, CARE Case/Control, All Possible controls
[8] = PLAB hCV7494810, 0 Rare Alleles, CARE Case/Control, Cleaner controls
[9] = PLAB hCV7494810, 0 Rare Alleles, CARE Prospective, All Possible controls
[10] = PLAB hCV7494810, 1 Rare Allele, CARE Case/Control, All Possible controls
[11] = PLAB hCV7494810, 1 Rare Allele, CARE Case/Control, Cleaner controls
[12] = PLAB hCV7494810, 1 Rare Allele, CARE Prospective, All Possible controls
[13] = PLAB hCV7494810, Case/Control, listed as Pravastatin
[14] = PLAB hCV7494810, Prospective, listed as Pravastatin
[15] = CARE Case/Control, Fatal & Nonfatal MI, Cleaner controls
[16] = CARE Prospective, Fatal & Nonfatal MI, Cleaner controls
[17] = CARE Prospective, Total CHD Events, All Possible controls
[18] = PON1 hCV2548962, 2 rare alleles, CARE Case/Control, Fatal & Nonfatal MI, Cleaner controls
[19] = PON1 hCV2548962, 2 rare alleles, CARE Prospective, Fatal & Nonfatal MI, Cleaner controls

CC[C@H](C)C(=O)O[C@H]1C[C@H](O)C=C2C=C[C@H](C)[C@H](CC[C@@H](O)C[C@@H](O)CC(=O)O)[C@H]21 [pravastatin]
Pravastatin Patients n/total (NOS3 hCV3219460, 1 Rare Allele, CARE Prospective, Cleaner controls): 64/366
Pravastatin vs placebo odds ratio, 0 rare alleles (NOS3 hCV3219460, Case/Control): 0.76 and 0.67
Pravastatin vs placebo odds ratio, 1 rare allele (NOS3 hCV3219460, Case/Control): 1.04 and 0.98
Pravastatin vs placebo odds ratio, 2 rare alleles (NOS3 hCV3219460, Case/Control): 0.27 and 0.23
Pravastatin vs placebo odds ratio, 0 rare alleles (NOS3 hCV3219460, Prospective): 0.79 and 0.70
Pravastatin vs placebo odds ratio, 1 rare allele (NOS3 hCV3219460, Prospective): 1.04 and 0.95
Pravastatin vs placebo odds ratio, 2 rare alleles (NOS3 hCV3219460, Prospective): 0.27 and 0.22
Pravastatin Patients (%) [1]: (18.3%)
Pravastatin Patients n/total [1]: 44/240
Pravastatin Patients (%) [2]: (13.7%)
Pravastatin Patients n/total [2]: 56/408
2 Rare Alleles (%), Pravastatin Patients (NPC1 hCV7490135, CARE Prospective): (13.8%)
Pravastatin Patients (%) [3]: (17.4%)
Pravastatin Patients n/total [3]: 53/304
Pravastatin Patients (%) [4]: (17.3%)
Pravastatin Patients n/total [4]: 53/307
Pravastatin Patients (%) [5]: (13.5%)
Pravastatin Patients n/total [5]: 51/378
Pravastatin Patients (%) [6]: (13.2%)
Pravastatin Patients n/total [6]: 51/386
2 Rare Alleles (%), Pravastatin Patients (NPC1 hCV25472673, CARE Case/Control): (15.0%)
2 Rare Alleles (%), Pravastatin Patients (NPC1 hCV25472673, CARE Prospective): (14.7%)
2 rare alleles n/total (%), pravastatin patients (NPC1 hCV25472673, Case/Control): (12.6%)
Pravastatin vs placebo odds ratio, 0 rare alleles (NPC1 hCV25472673, Case/Control): 1.21
Pravastatin vs placebo odds ratio, 1 rare allele (NPC1 hCV25472673, Case/Control): 0.65
Pravastatin vs placebo odds ratio, 2 rare alleles (NPC1 hCV25472673, Case/Control): 0.34
2 rare alleles n/total (%), pravastatin patients (NPC1 hCV25472673, Prospective): (8.7%)
Pravastatin vs placebo odds ratio, 0 rare alleles (NPC1 hCV25472673, Prospective): 1.25
Pravastatin vs placebo odds ratio, 1 rare allele (NPC1 hCV25472673, Prospective): 0.71 and 0.62
Pravastatin vs placebo odds ratio, 2 rare alleles (NPC1 hCV25472673, Prospective): 0.49 and 0.34
Pravastatin Patients (%) [7]: (12.2%)
Pravastatin Patients n/total [7]: 84/691
Pravastatin Patients (%) [8]: (17.5%)
Pravastatin Patients n/total [8]: 84/481
Pravastatin Patients (%) [9]: (11.9%)
Pravastatin Patients n/total [9]: 84/706
Pravastatin Patients (%) [10]: (8.5%)
Pravastatin Patients n/total [10]: 38/448
Pravastatin Patients (%) [11]: (12.6%)
Pravastatin Patients n/total [11]: 38/302
Pravastatin Patients (%) [12]: (8.4%)
Pravastatin Patients n/total [12]: 38/455
2 Rare Alleles (%), Pravastatin Patients (PLAB hCV7494810, CARE Prospective): (6.9%)
2 rare alleles n/total (%), pravastatin patients (PLAB hCV7494810, Case/Control): (8.3%)
Pravastatin vs placebo odds ratio, 0 rare alleles (PLAB hCV7494810, Case/Control): 0.95
Pravastatin vs placebo odds ratio, 0 rare alleles [13]: 1.03
Pravastatin vs placebo odds ratio, 1 rare allele [13]: 0.50 and 0.44
Pravastatin vs placebo odds ratio, 2 rare alleles [13]: 1.62 and 1.45
2 rare alleles n/total (%), pravastatin patients (PLAB hCV7494810, Prospective): (8.3%)
Pravastatin vs placebo odds ratio, 0 rare alleles (PLAB hCV7494810, Prospective): 0.93
Pravastatin vs placebo odds ratio, 0 rare alleles [14]: 1.03
Pravastatin vs placebo odds ratio, 1 rare allele [14]: 0.52 and 0.46
Pravastatin vs placebo odds ratio, 2 rare alleles [14]: 1.61 and 1.24
Pravastatin vs. Placebo Odds Ratio (95% CI), Patients with 0 Rare Alleles [15]: 0.84 (0.58 to 1.22)
n/total (%) cases, Pravastatin Patients, 0 Rare Alleles [15]: 67/416 (16.1%)
Pravastatin vs. Placebo Odds Ratio (95% CI), Patients with 0 Rare Alleles [16]: 0.81 (0.56 to 1.16)
n/total (%) cases, Pravastatin Patients, 0 Rare Alleles [16]: 67/423 (15.8%)
Pravastatin vs. Placebo Odds Ratio (95% CI), Patients with 0 Rare Alleles [17]: 0.77 (0.61 to 0.98)
n/total (%) cases, Pravastatin Patients, 0 Rare Alleles [17]: 183/613 (29.9%)
Pravastatin vs. Placebo Odds Ratio (95% CI), Patients with 1 Rare Allele [15]: 0.63 (0.42 to 0.95)
n/total (%) cases, Pravastatin Patients, 1 Rare Allele [15]: 50/335 (14.9%)
Pravastatin vs. Placebo Odds Ratio (95% CI), Patients with 1 Rare Allele [16]: 0.64 (0.31 to 1.36)
n/total (%) cases, Pravastatin Patients, 1 Rare Allele [16]: 50/340 (14.7%)
Pravastatin vs. Placebo Odds Ratio (95% CI), Patients with 1 Rare Allele [17]: 0.94 (0.58 to 1.54)
n/total (%) cases, Pravastatin Patients, 1 Rare Allele [17]: 151/504 (30.0%)
ORs of fatal or non-fatal MI when treated with pravastatin (PON1 hCV2548962, 2 rare alleles, CARE and WOSCOPs sample sets): 0.28-0.34
Pravastatin vs. Placebo Odds Ratio (95% CI), Patients with 2 Rare Alleles [18]: 0.29 (0.12 to 0.71)
n/total (%) cases, Pravastatin Patients, 2 Rare Alleles [18]: 9/79 (11.4%)
Pravastatin vs. Placebo Odds Ratio (95% CI), Patients with 2 Rare Alleles [19]: 0.32 (0.11 to 0.95)
n/total (%) cases, Pravastatin Patients, 2 Rare Alleles [19]: 9/80 (11.3%)
Pravastatin vs. Placebo Odds Ratio (95% CI), Patients with 2 Rare Alleles (PON1 hCV2548962, 2 rare alleles, CARE Prospective, Total CHD Events, All Possible controls): 0.28 (0.13 to 0.60)
